{
  "source": "patent US12599596B2",
  "about": "“Anti-tumor pharmaceutical composition based on immune checkpoint blockade and use thereof” (Shanghai Hui Tian Jin Ze Biotech Co., Ltd., priority 2023, dated 2026)",
  "key": {"[1]": {"tested_on": "A549 lung cancer cells", "test": "EdU proliferation of tumor cells treated with CBD", "type": "cell-based", "details": "CBD 5, 10, 20 μM, 24 h", "procedure": "(§1) Different types of tumor cells (RKO colorectal cancer cells, H1975 lung cancer cells, and A549 lung cancer cells) in the logarithmic growth phase were respectively inoculated into a 96-well plate at an inoculum density of 5×10^3 per well, and then, the tumor cells were placed into an incubator at 37° C. and 5% CO2 for incubation for 24 h; a CBD mother solution (10 mM) was respectively diluted with culture medium to 5 μM, 10 μM, or 20 μM, and the culture medium in the 96-well plate was aspirated off, 100 μL of culture medium containing different concentrations of CBD was added to each well, a control well (0 μM CBD) was set, and the cells were continuously incubated for 24 h. After the culture was completed, the quantity of proliferating tumor cells was detected with an EdU kit (Beyotime, C0085S). Finally, a high-content imaging analysis system was used for photographing and the data were counted."}, "[2]": {"tested_on": "H1975 lung cancer cells", "test": "EdU proliferation of tumor cells treated with CBD", "type": "cell-based", "details": "CBD 5, 10, 20 μM, 24 h", "procedure": "as §1"}, "[3]": {"tested_on": "RKO colorectal cancer cells", "test": "EdU proliferation of tumor cells treated with CBD", "type": "cell-based", "details": "CBD 5, 10, 20 μM, 24 h", "procedure": "as §1"}, "[4]": {"tested_on": "RKO cells", "test": "In vitro killing of tumor cells by T cells (NK-92) with CBD, crystal violet", "type": "cell-based", "details": "CBD 5, 10, 20 μM 12 h, then NK-92 cells 1:500, 24 h; vs control", "procedure": "RKO cells in the logarithmic growth phase were inoculated into a 12-well plate at a density of 5×10^4 cells/mL and placed in a 5% CO2 incubator for growth adhering to a wall overnight. The supernatant was removed, CBD at different concentrations (0 μM, 5 μM, 10 μM, and 20 μM) was added, and the cells were coincubated for 12 h. NK-92 cells (T cells) were added at 1:500, the cells were cultured for 24 h, and a control group without the NK-92 cells was set at the same time. The supernatant was removed, PBS was used for washing 2 times, and 4% paraformaldehyde was added to fix the cells. Then, PBS was used for washing 2 times, crystal violet was added for dyeing for 30 min, and finally, redundant crystal violet was washed away with PBS, and photographing was performed to collect the data."}, "[5]": {"tested_on": "MC38 colorectal cancer cells", "test": "MC38 subcutaneous tumor model in C57BL/6 mice, Embodiment 2", "type": "in vivo", "details": "for Tumor volume: CBD 100 mg/kg, PAR 10 mg/kg, vitamin E 50 mg/kg, thymosin 2 mg/kg", "procedure": "• 1. MC38 colorectal cancer cells were inoculated into 6-week-old female C57BL/6 mice (1×10^6 cells/mouse) to establish a subcutaneous tumor model. After the tumor volume reached 50 mm^3, the mice were grouped and administered according to the following pharmaceutical combinations: (1) control group (no administration), (2) anti-PD-1 ([…]/time) group, (3) anti-CTLA4 ([…]/time) group, (4) CBD (100 mg/kg) group, (5) CBD (100 mg/kg)+anti-CTLA4 ([…]/time) group, (6) PAR (10 mg/kg) group, (7) PAR (10 mg/kg)+anti-CTLA4 ([…]) group, (8) CBD (100 mg/kg)+PAR (10 mg/kg) group, (9) vitamin E(a-tocopherol) (50 mg/kg)+thymosin (2 mg/kg) group, (10) CBD (100 mg/kg)+vitamin E(α-tocopherol) (50 mg/kg)+thymosin (2 mg/kg) group, (11) PAR (10 mg/kg)+vitamin E(α-tocopherol) (50 mg/kg)+thymosin (2 mg/kg), (12) PAR (10 mg/kg)+CBD (100 mg/kg)+vitamin E(α-tocopherol) (50 mg/kg)+thymosin (2 mg/kg) group, (13) CBD (100 mg/kg)+vitamin E(α-tocopherol) (50 mg/kg)+thymosin (2 mg/kg)+anti-CTLA4 ([…]/time) group, (14) PAR (10 mg/kg)+vitamin E(α-tocopherol) (50 mg/kg)+thymosin (2 mg/kg)+anti-CTLA4 ([…]) group, and (15) CBD (100 mg/kg)+PAR (10 mg/kg)+vitamin E(α-tocopherol) (50 mg/kg)+thymosin (2 mg/kg)+anti-CTLA4 ([…]/time) group. The tumor weight and volume, and body weight of the mice were monitored once every 2 days. The tumor volume was calculated as follows: tumor volume (mm^3)=0.5×(length)x(width)^2. The mice were sacrificed 14 days after drug administration, and the tumors were dissected.\nThe dissolving mode of the pharmaceutical composition was as follows: the pharmaceutical composition was dissolved in 10% DMSO+corn oil, the mice were gavaged with the pharmaceutical composition at 100 pl/mouse, and the mice in the control group were injected with the same volume of the solvent. • 2. MC38 colorectal cancer cells were inoculated into 6-week-old female nude mice (1×10^6 cells/mouse) to establish a subcutaneous tumor model. After the tumor volume reached 50 mm^3, the mice were grouped and administered according to the following pharmaceutical combinations: (1) control group, (2) CBD (100 mg/kg)+vitamin E(α-tocopherol) (50 mg/kg)+thymosin (2 mg/kg) group, (3) PAR (10 mg/kg)+vitamin E(α-tocopherol) (50 mg/kg)+thymosin (2 mg/kg) group, and (4) PAR (10 mg/kg)+CBD (100 mg/kg)+vitamin E(α-tocopherol) (50 mg/kg)+thymosin (2 mg/kg) group. The tumor weight and volume, and the body weight of the mice were monitored once every 2 days. The tumor volume was calculated as follows: tumor volume (mm^3)=0.5×(length)x(width)^2. The mice were sacrificed 14 days after drug administration, and the tumors were dissected. (II) Experimental Results 1."}},
  "data": [
    {"compound": "C=C(C)[C@@H]1CCC(C)=C[C@H]1c1c(O)cc(CCCCC)cc1O", "note": "[CBD, cannabidiol]", "values": [
      {"measurement": "toxicity to tumor cells (proliferation, EdU fluorescence intensity)", "setting": "[1]", "value": "not significantly toxic"},
      {"measurement": "toxicity to tumor cells (proliferation, EdU fluorescence intensity)", "setting": "[2]", "value": "not significantly toxic"},
      {"measurement": "toxicity to tumor cells (proliferation, EdU fluorescence intensity)", "setting": "[3]", "value": "not significantly toxic"},
      {"measurement": "viability of RKO cells in CBD+T cells coculture", "setting": "[4]", "value": "significantly reduced the viability of RKO cells"},
      {"measurement": "Tumor volume", "setting": "[5]; Day 0", "value": 0, "unit": "mm^3"},
      {"measurement": "Tumor volume", "setting": "[5]; Day 2", "value": 54.99, "unit": "mm^3"},
      {"measurement": "Tumor volume", "setting": "[5]; Day 4", "value": 70.96, "unit": "mm^3"},
      {"measurement": "Tumor volume", "setting": "[5]; Day 6", "value": 87.63, "unit": "mm^3"},
      {"measurement": "Tumor volume", "setting": "[5]; Day 8", "value": 178.79, "unit": "mm^3"},
      {"measurement": "Tumor volume", "setting": "[5]; Day 10", "value": 279.84, "unit": "mm^3"},
      {"measurement": "Tumor volume", "setting": "[5]; Day 12", "value": 399.70, "unit": "mm^3"},
      {"measurement": "Tumor volume", "setting": "[5]; Day 14", "value": 493.09, "unit": "mm^3"},
      {"measurement": "Tumor volume", "setting": "[5]; Day 16", "value": 600.09, "unit": "mm^3"},
      {"measurement": "therapeutic / tumor inhibition effect in words", "setting": "[5]; normal mice, Embodiment 2, comparison between groups", "value": "equivalent therapeutic effects"}
    ]}
  ]
}
